Source: article PMC6508583 (Journal of the American Chemical Society, 2019)
In brackets after ≈: the same amount, converted by molar mass. Several values for one entry are separate records, joined by “and”; a condition that tells them apart may be missing. Equal values may be shown once.

What was measured:
[1] = system: Mycobacterium smegmatis wild type; test: Antibacterial activity, wild-type M. smegmatis
[2] = system: MRSA; test: Antibacterial activity against reference strains: MRSA; assay type: cell-based
[3] = system: Mycobacterium tuberculosis clinical isolates; test: microbe, parasite or virus in culture; assay type: cell-based; conditions: clinical isolates
[4] = system: E. coli; test: Antibacterial activity against reference strains: E. coli
[5] = system: E coli; test: Neutropenic mouse thigh infection model; assay type: in vivo; conditions: dose 3 mg.kg^−1
[6] = system: wild-type K. pneumoniae clinical isolates; test: MIC distribution, clinical wild-type K. pneumoniae isolates; assay type: cell-based; conditions: panel of wild-type clinical isolates
[7] = system: Mycobacterium abscessus; test: microbe, parasite or virus in culture; assay type: cell-based
[8] = system: Mit13 hybrid ribosome (decoding A site of the human mitochondrial ribosome); assay type: biochemical
[9] = system: NIH 3T3 mouse embryonic fibroblast cells; assay type: cell-based
[10] = system: K. pneumoniae clinical isolates carrying two or more resistance determinants; assay type: cell-based; conditions: AAC(3), AAC(6’)
[11] = system: wild-type E. cloacae clinical isolates; test: MIC distribution, clinical wild-type E. cloacae isolates; assay type: cell-based; conditions: panel of wild-type clinical isolates
[12] = system: wild-type bacterial ribosome; test: Cell-free translation assay, wild-type bacterial ribosome; assay type: biochemical; conditions: in vitro translation inhibition
[13] = system: A. baumannii; test: Antibacterial activity against reference strains: A. baumannii; assay type: cell-based; conditions: strain AG225
[14] = system: A1555G mutant mitochondrial hybrid ribosome; assay type: biochemical, human
[15] = system: E. coli clinical isolates carrying two or more resistance determinants; test: Activity against E. coli clinical isolates with multiple resistance determinants; assay type: cell-based
[16] = system: Cyt14 hybrid ribosome (decoding A site of the human cytoplasmic ribosome); assay type: biochemical
[17] = system: K. pneumoniae; test: Antibacterial activity against reference strains: K. pneumoniae; assay type: cell-based; conditions: strain AG215
[18] = system: E coli 70S ribosome (helix 44, A1408); test: Quantitative dimethyl sulfate footprinting of the 70S ribosome; assay type: binding; conditions: read-out: apparent Kd; DMS footprinting, % protection of N1 of A1408, E. coli 70S ribosome
[19] = system: E. cloacae; test: Antibacterial activity against reference strains: E. cloacae; assay type: cell-based; conditions: strain AG290
[20] = system: wild-type E. coli clinical isolates; test: MIC distribution, clinical wild-type E. coli isolates; assay type: cell-based; conditions: panel of wild-type clinical isolates
[21] = system: E. cloacae clinical isolates carrying two or more resistance determinants; assay type: cell-based; conditions: AAC(6’)
[22] = system: E. coli carrying specific resistance determinants; test: Activity against wild-type and engineered E. coli carrying specific AMEs or RMTs; assay type: cell-based
[23] = system: E. coli; test: Neutropenic mouse E. coli septicemia model; assay type: in vivo
[24] = system: P. aeruginosa; test: Antibacterial activity against reference strains: P. aeruginosa

Structure (SMILES): CCC[C@H]1[C@H](O)[C@@H](N)[C@@H](O[C@H]2[C@H](O[C@@H]3O[C@H](CO)[C@@H](O[C@H]4O[C@@H](CN)[C@@H](O)[C@H](O)[C@H]4N)[C@H]3O)[C@@H](O)[C@H](N)C[C@@H]2N)O[C@@H]1CO [Compound 5, 4’-deoxy-4’-propylparomomycin]
- Antibacterial activity (MIC) Wild-type M. smegmatis [1]: 0.16 µg/mL
- Antibacterial activity (MIC) MRSA AG038 ([2]; strain AG038): 1 to 2 µg/mL
- Antibacterial activity (MIC) MRSA AG042 ([2]; strain AG042 carries the AAC(6)’, ANT(4’,4’’) and APH(3’) genes): 2 µg/mL
- MIC M. tuberculosis clinical isolates [3]: 1 µg/mL (≈ 1.56 µM)
- Antibacterial activity (MIC) E. coli AG001 ([4]; strain AG001): 1 to 2 µg/mL
- Antibacterial activity (MIC) E. coli AG003 ([4]; strain AG003 carries the AAC(3) gene): 1 to 2 µg/mL
- log reduction in colony-forming units (CFUs) compared to vehicle [5]: 1.5 log
- MIC90 K. pneumoniae [6]: 1 µg/mL (≈ 1.56 µM)
- MIC M. abscessus, AAC(2’) gene deleted ([7]; AAC(2’) gene deleted): 4 µg/mL and 2 µg/mL
- MIC M. abscessus ([7]; AAC(2’) gene present): 4 µg/mL (≈ 6.23 µM)
- Selectivity Mit 13 ([8]; Mit13 over wt bacterial ribosome): 5567
- IC50 Mit13 ([8]; in vitro translation inhibition, Mit13 hybrid ribosome): 167 µg/mL (≈ 260 µM)
- loss of cell viability [9]: only minimal loss of cell viability
- Activity (MIC) K. pneumoniae isolate 201440494 [10]: 0.5 µg/mL
- Activity (MIC) K. pneumoniae isolate 2014310114 [10]: 0.25 µg/mL
- Activity (MIC) K. pneumoniae isolate 2014310108 ([10]; RmtB): 1 µg/mL
- MIC90 E. cloacae [11]: 1 µg/mL (≈ 1.56 µM)
- IC50 wt [12]: 0.03 µg/mL (≈ 0.0467 µM)
- Antibacterial activity (MIC) A. baumannii AG225 [13]: 2 µg/mL
- Selectivity A1555G ([14]; A1555G over wt bacterial ribosome): 1733
- IC50 A1555G ([14]; in vitro translation inhibition, A1555G mutant mitochondrial hybrid ribosome): 52 µg/mL (≈ 81 µM)
- Activity (MIC) E. coli isolate 201430298 ([15]; AAC(3), AAC(6’)): 1 µg/mL
- Activity (MIC) E. coli isolate 2014251408 ([15]; AAC(3), AAC(6’)): 2 µg/mL
- Activity (MIC) E. coli isolate 2014405344 ([15]; AAC(3), APH(3’), RmtB): 4 µg/mL
- Activity (MIC) E. coli isolate 201441114 ([15]; AAC(6’), ANT(2’’)): 1 µg/mL
- Selectivity Cyt14 ([16]; Cyt14 over wt bacterial ribosome): 2133
- IC50 Cyt 14 ([16]; in vitro translation inhibition, Cyt14 hybrid ribosome): 64 µg/mL (≈ 99.7 µM)
- Antibacterial activity (MIC) K. pneumoniae AG215 [17]: 0.5 µg/mL
- Kd [18]: 340 ± 50 nM
- Antibacterial activity (MIC) E. cloacae AG290 [19]: 0.5 to 1 µg/mL
- MIC90 E. coli [20]: 2 µg/mL (≈ 3.12 µM)
- Activity (MIC) E. cloacae isolate 201435487 ([21]; AAC(3)): 0.5 µg/mL
- Activity (MIC) E. cloacae isolate 201333207 ([21]; AAC(3), APH(3’)): 0.5 µg/mL
- Activity (MIC) E. cloacae isolate 201385168 ([21]; AAC(3), RmtC): 1 µg/mL
- Activity (MIC) E. cloacae isolate 201430601 ([21]; ANT(2’’)): 0.5 µg/mL
- Activity (MIC) E. coli AG006 ([22]; strain AG006, WT): 0.5 to 1 µg/mL
- Activity (MIC) E. coli AG007 ([22]; strain AG007, AAC(3)): 2 µg/mL
- Activity (MIC) E. coli AG008 ([22]; strain AG008, ANT(2’’)): 0.5 to 1 µg/mL
- Activity (MIC) E. coli AG009 ([22]; strain AG009, AAC(6’)): 1 to 2 µg/mL
- Activity (MIC) E. coli AG036 ([22]; strain AG036, ANT(4′,4′′)): 1 µg/mL
- Activity (MIC) E. coli AG103 ([22]; strain AG103, armA): 2 µg/mL
- Activity (MIC) E. coli AG105 ([22]; strain AG105, AAC(2′)): 1 µg/mL
- Activity (MIC) E. coli AG166 ([22]; strain AG166, APH(3′)): 1 to 2 µg/mL
- reduction of bacterial burden in the blood, more than the parent paromomycin at the same dose level ([23]; 4 mg.kg^−1): 1 log
- reduction of bacterial burden in the blood ([23]; 4 mg.kg^−1 dose): approximately 1.5 log units
- Antibacterial activity (MIC) P. aeruginosa AG031 ([24]; strain AG031 carries the APH(3’) gene): 8 µg/mL
- Antibacterial activity (MIC) P. aeruginosa AG220 ([24]; strain AG220 carries the APH(3’) gene): 2 to 4 µg/mL
